Measured values taken from article PMC12655351, “Synthesis and Anticancer Activity Evaluation of New 5-((5-Nitrofuran-2-yl)allylidene)-2-thioxo-4-thiazolidinones” (Pharmaceuticals, 2025).

Experiments:
786-0 = assay: cells; details: Homo sapiens, 786-0, 48 h
HCT-15 = assay: NCI-60 SRB screen; details: HCT-15, 48 h
[1] = system: panel of 60 cancer cell lines
RPMI-8226 [2] = details: RPMI-8226, 48 h
DU-145 = details: DU-145, 48 h
MCF7 = assay: NCI-60 SRB screen; details: MCF7, 48 h
HOP-92 = assay: NCI-60 SRB screen; details: HOP-92, 48 h
HOP-62 = assay: NCI-60 SRB screen; details: HOP-62, 48 h
MOLT-4 = details: MOLT-4, 48 h
K-562 = details: K-562, 48 h
HS 578T = assay: cells; details: Homo sapiens, 48 h
BT-549 = details: BT-549, 48 h
Prostate Cancer = assay: cells; details: Homo sapiens, read-out: MG_MID GI50
OVCAR-4 = details: OVCAR-4, 48 h
CNS cancer = assay: cells; details: Homo sapiens
Renal Cancer = Renal Cancer subpanel
SK-OV-3 = details: SK-OV-3, 48 h
NCI/ADR-RES = details: 48 h
UO-31 = details: UO-31, 48 h
NCI-H460 = assay: NCI-60 SRB screen; details: NCI-H460, 48 h
RPMI-8226 [3] = assay: cells; details: Homo sapiens, RPMI-8226, 48 h
UACC-62 = assay: NCI-60 SRB screen
MDA-MB-231 = assay: [3H]-thymidine incorporation assay; assay type: cell-based; details: Homo sapiens; MDA-MB-231, 24 h of treatment
Procedure, shortened: (§1)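 Cells treated 24 h with compound at 1, 5, 10 μM (MCF-7) or 5, 15, 30 μM (MDA-MB-231), in triplicate, then pulsed with 0.5 μCi [3H]-thymidine for 4 h at 37 °C. TCA-precipitated, lysed cells counted by scintillation; uptake expressed as percent of control.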

MCF-7 = assay: [3H]-thymidine incorporation assay; assay type: cell-based; details: Homo sapiens, MCF7; MCF-7, 24 h of treatment
Procedure, shortened: as §1

HT29 = details: HT29, 48 h
OVCAR-3 = assay: cells; details: Homo sapiens, OVCAR-3, 48 h
MDA-MB-231/ATCC = details: 48 h
PC-3 = assay: cells; details: Homo sapiens, PC-3, 48 h
SR = assay: cells; details: Homo sapiens, 48 h

**Q.** With `O=C(O)CCN1C(=O)/C(=C/C=C/c2ccc([N+](=O)[O-])o2)SC1=S` [12b, 3-((Z)-5-((E)-3-(5-Nitrofuran-2-yl)allylidene)-4-oxo-2-thioxothiazolidin-3-yl)propanoic acid] as the compound, how does the GI50 (786-0) read?
**A.** Its GI50 is 1380 nM.

**Q.** And the TGI (HCT-15)?
**A.** Its TGI is 3.50 µM.

**Q.** What about the “Positive cytostatic effect (ratio of cell lines with GP from 0 to 50 to total number)” value ([1]; 10 μM, 48 h) of the same compound?
**A.** Its value is 4/55.

**Q.** What about the Mean growth ([1]; 10 μM, 48 h, one dose) of the same compound?
**A.** The Mean growth was -62.05%.

**Q.** What about the “MG_MID TGI” value ([1]; full panel (last line of Table S2)) of the same compound?
**A.** The value was 4.69 µM.

**Q.** What about the TGI (RPMI-8226 [2]) of the same compound?
**A.** The TGI was 4.48 µM.

**Q.** What about the TGI (DU-145) of the same compound?
**A.** The TGI was 10.6 µM.

**Q.** What about the GI50 (MCF7; Homo sapiens) of the same compound?
**A.** Its GI50 is 460 nM.

**Q.** And the TGI (MCF7)?
**A.** Its TGI is 2.10 µM.

**Q.** And the TGI (HOP-92)?
**A.** Its TGI is 3.50 µM.

**Q.** And the GI50 (HOP-92; Homo sapiens)?
**A.** Its GI50 is 1830 nM.

**Q.** And the CC50 (HOP-92; Homo sapiens, read-out: LC50, HOP-92, 48 h)?
**A.** Its CC50 is 6.72 µM.

**Q.** And the TGI (HOP-62)?
**A.** Its TGI is 3.57 µM.

**Q.** What about the GI50 (HOP-62; Homo sapiens) of the same compound?
**A.** The GI50 was 1610 nM.

**Q.** What about the TGI (MOLT-4) of the same compound?
**A.** Its TGI is 2.56 µM.

**Q.** What about the TGI (K-562) of the same compound?
**A.** The TGI was 2.73 µM.

**Q.** And the GI50 (HS 578T; HS 578T)?
**A.** Its GI50 is 1450 nM.

**Q.** And the CC50 (HS 578T; read-out: LC50)?
**A.** The CC50 was > 100 µM.

**Q.** What about the TGI (BT-549) of the same compound?
**A.** Its TGI is 2.88 µM.

**Q.** What about the GI50 (Prostate Cancer) of the same compound?
**A.** The GI50 was 2550 nM.

**Q.** What about the TGI (OVCAR-4) of the same compound?
**A.** Its TGI is 3.79 µM.

**Q.** What about the GI50 (CNS cancer; read-out: MG_MID GI50) of the same compound?
**A.** The GI50 was 1620 nM.

**Q.** What about the CC50 (CNS cancer; read-out: MG_MID LC50) of the same compound?
**A.** The CC50 was 12.3 µM.

**Q.** What about the “MG_MID TGI” value (Renal Cancer) of the same compound?
**A.** The value was 6.01 µM.

**Q.** And the TGI (SK-OV-3)?
**A.** Its TGI is 16.1 µM.

**Q.** What about the TGI (NCI/ADR-RES) of the same compound?
**A.** The TGI was 4.28 µM.

**Q.** And the “growth GP” value (A498; A498, 10 μM, 48 h)?
**A.** Its value is -96.94%.

**Q.** What about the TGI (A498; A498, 48 h) of the same compound?
**A.** Its TGI is 27.4 µM.

**Q.** What about the TGI (UO-31) of the same compound?
**A.** Its TGI is 2.25 µM.

**Q.** What about the GI50 (NCI-H460; Homo sapiens) of the same compound?
**A.** Its GI50 is 1330 nM.

**Q.** What about the CC50 (NCI-H460; Homo sapiens, read-out: LC50) of the same compound?
**A.** Its CC50 is 6.46 µM.

**Q.** What about the TGI (NCI-H460) of the same compound?
**A.** Its TGI is 2.93 µM.

**Q.** What about the GI50 (RPMI-8226 [3]) of the same compound?
**A.** Its GI50 is 1230 nM.

**Q.** And the CC50 (RPMI-8226 [3]; read-out: LC50)?
**A.** The CC50 was > 100 µM.

**Q.** And the GI50 (UACC-62; Homo sapiens, UACC-62, 48 h)?
**A.** The GI50 was 650 nM.

**Q.** And the CC50 (UACC-62; Homo sapiens, UACC-62, 48 h, read-out: LC50, UACC-62, 48 h)?
**A.** Its CC50 is 4.16 µM.

**Q.** What about the “growth GP” value (UACC-62; UACC-62, 10 μM, 48 h) of the same compound?
**A.** Its value is -97.43%.

**Q.** What about the TGI (UACC-62; UACC-62, 48 h) of the same compound?
**A.** The TGI was 2.00 µM.

**Q.** And the IC50 (MDA-MB-231)?
**A.** Its IC50 is 1820 nM.

**Q.** And the IC50 (MCF-7)?
**A.** Its IC50 is 6.66 µM.

**Q.** And the TGI (HT29)?
**A.** Its TGI is 12.5 µM.

**Q.** What about the GI50 (OVCAR-3) of the same compound?
**A.** Its GI50 is 1360 nM.

**Q.** What about the TGI (MDA-MB-231/ATCC) of the same compound?
**A.** The TGI was 3.24 µM.

**Q.** What about the GI50 (PC-3) of the same compound?
**A.** Its GI50 is 2480 nM.

**Q.** And the GI50 (SR)?
**A.** Its GI50 is 300 nM.
